Experimental findings from US10870652B2, “Compounds and methods for modulating bruton's tyrosine kinase” (CORVUS PHARMACEUTICALS, INC., priority 2016, dated 2020) are described below.

What all share (format): biochemical
One assay addresses T1, TXK (Homo sapiens, UniProt P42681).
T1 sequence (P42681 1-527): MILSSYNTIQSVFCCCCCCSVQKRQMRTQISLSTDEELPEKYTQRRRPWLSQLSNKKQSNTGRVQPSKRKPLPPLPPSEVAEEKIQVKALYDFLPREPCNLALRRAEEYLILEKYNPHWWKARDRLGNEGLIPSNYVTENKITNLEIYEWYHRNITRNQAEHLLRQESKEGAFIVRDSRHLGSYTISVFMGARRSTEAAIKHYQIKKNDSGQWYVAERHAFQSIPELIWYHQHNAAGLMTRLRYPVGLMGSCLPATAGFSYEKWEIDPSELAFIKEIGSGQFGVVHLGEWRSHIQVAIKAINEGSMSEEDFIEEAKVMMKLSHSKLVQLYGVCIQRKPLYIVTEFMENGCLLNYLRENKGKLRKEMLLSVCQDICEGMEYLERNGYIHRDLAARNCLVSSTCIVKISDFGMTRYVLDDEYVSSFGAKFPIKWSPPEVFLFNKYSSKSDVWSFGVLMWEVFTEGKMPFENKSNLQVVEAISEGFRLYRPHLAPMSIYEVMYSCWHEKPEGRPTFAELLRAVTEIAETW
Nature of the assay: TXK IC50 kinase inhibition assay.

A further assay has as its target T2, JAK3 (Homo sapiens, UniProt P52333).
T2 sequence (P52333 1-1124): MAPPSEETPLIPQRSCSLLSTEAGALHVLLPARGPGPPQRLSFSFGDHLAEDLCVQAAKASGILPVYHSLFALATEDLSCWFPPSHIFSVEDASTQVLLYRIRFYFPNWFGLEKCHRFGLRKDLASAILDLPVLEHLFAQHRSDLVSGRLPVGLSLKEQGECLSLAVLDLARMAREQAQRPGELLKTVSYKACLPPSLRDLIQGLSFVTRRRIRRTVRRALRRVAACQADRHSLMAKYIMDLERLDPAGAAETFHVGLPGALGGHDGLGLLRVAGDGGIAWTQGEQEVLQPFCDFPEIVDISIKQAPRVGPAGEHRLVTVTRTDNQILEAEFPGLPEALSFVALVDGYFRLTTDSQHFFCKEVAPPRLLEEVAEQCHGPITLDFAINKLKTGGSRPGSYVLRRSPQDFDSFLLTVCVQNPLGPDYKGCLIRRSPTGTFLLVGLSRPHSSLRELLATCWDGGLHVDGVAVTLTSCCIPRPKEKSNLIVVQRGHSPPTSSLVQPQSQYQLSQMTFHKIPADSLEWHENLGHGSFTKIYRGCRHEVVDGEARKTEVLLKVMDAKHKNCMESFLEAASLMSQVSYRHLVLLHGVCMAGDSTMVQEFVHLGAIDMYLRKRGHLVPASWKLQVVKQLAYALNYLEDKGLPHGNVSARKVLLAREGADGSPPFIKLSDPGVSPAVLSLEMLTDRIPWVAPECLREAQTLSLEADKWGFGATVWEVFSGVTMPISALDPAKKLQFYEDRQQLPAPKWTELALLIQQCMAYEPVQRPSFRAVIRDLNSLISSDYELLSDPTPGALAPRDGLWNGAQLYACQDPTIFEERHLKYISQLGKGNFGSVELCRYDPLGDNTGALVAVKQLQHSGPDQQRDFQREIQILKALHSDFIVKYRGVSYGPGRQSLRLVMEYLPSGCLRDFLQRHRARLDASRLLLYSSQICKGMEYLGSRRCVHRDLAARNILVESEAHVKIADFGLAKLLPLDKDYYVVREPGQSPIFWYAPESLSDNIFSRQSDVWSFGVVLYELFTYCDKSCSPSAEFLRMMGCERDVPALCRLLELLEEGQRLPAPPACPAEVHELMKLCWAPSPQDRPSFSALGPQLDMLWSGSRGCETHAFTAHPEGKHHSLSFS
Put plainly: JAK3 IC50 kinase inhibition assay.

The next assay has as its target BTK (Homo sapiens, UniProt Q06187). Nature of the assay: BTK IC50 kinase inhibition assay.
The next assay concerns the target T3, ITK (Homo sapiens, UniProt Q08881).
T3 sequence (Q08881 1-620): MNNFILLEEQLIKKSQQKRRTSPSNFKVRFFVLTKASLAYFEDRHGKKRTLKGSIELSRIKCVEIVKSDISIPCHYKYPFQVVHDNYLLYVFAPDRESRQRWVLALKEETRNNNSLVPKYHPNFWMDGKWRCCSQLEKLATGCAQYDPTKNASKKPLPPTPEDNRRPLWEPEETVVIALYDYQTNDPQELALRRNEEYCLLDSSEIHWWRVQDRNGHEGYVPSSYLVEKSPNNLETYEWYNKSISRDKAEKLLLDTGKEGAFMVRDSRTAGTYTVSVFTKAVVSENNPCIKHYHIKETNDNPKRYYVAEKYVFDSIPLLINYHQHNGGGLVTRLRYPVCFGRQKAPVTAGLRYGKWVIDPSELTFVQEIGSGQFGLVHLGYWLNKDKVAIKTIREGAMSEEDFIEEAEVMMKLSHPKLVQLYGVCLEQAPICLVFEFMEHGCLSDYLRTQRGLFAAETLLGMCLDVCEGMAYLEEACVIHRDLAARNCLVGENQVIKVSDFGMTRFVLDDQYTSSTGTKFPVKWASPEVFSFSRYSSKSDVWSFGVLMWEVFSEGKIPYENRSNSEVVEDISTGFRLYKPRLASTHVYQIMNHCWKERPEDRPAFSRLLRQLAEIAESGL
Put plainly: ITK IC50 kinase inhibition assay.

By IC50 is commonly meant the concentration that inhibits the measured activity by half.

BTK, sequence (Q06187 whole entry): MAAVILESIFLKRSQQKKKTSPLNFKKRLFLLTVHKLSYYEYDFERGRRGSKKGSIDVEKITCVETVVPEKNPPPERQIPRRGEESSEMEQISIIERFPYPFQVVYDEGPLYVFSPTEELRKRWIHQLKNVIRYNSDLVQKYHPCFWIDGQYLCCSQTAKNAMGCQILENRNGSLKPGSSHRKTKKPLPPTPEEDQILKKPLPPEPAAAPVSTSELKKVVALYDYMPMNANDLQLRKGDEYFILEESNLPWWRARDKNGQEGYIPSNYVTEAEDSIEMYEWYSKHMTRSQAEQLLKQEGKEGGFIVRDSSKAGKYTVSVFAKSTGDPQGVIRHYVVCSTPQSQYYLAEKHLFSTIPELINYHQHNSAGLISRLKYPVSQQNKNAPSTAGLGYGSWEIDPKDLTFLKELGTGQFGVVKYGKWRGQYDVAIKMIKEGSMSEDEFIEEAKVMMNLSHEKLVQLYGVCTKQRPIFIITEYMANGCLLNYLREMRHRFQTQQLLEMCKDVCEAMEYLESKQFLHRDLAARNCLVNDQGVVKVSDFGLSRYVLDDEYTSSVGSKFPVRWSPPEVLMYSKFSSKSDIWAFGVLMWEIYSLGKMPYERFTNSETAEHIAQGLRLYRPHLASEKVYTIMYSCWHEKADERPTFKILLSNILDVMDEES

`C=CC(=O)N1CCC[C@H]1Cn1nc(-c2ccc(Oc3ccccc3)cc2F)c2cncnc21` [Compound A19, (S)-1-(2-((3-(2-fluoro-4-phenoxyphenyl)-1H-pyrazolo[3,4-d]pyrimidin-1-yl)methyl)pyrrolidin-1-yl)prop-2-en-1-one]: the 50% inhibitory concentration (IC50) against TXK is under 100 nM; against JAK3, over 500 nM; at BTK, under 100 nM; against ITK, over 500 nM.

Turning to `CC#CC(=O)N1CCC[C@H]1Cn1nc(-c2ccc(Oc3ccccc3)cc2F)c2cncnc21` [Compound A20, (S)-1-(2-((3-(2-fluoro-4-phenoxyphenyl)-1H-pyrazolo[3,4-d]pyrimidin-1-yl)methyl)pyrrolidin-1-yl)but-2-yn-1-one], the IC50 was over 500 nM at TXK, over 500 nM against JAK3, under 100 nM against BTK and over 500 nM against ITK.

With `C=C(C)C(=O)N1CCC[C@@H](n2nc(-c3ccc(Oc4ccccc4)cc3)c3cncnc32)C1` [Compound A21, (R)-2-methyl-1-(3-(3-(4-phenoxyphenyl)-1H-pyrazolo[3,4-d]pyrimidin-1-yl)piperidin-1-yl)prop-2-en-1-one], the 50% inhibitory concentration (IC50) against TXK, at JAK3, on BTK and at ITK was over 500 nM each time.

With `C=CC(=O)N1CCC[C@H]1Cn1nc(-c2ccc(Oc3ccccc3)cc2)c2cnccc21` [Compound A22, (S)-1-(2-((3-(4-phenoxyphenyl)-1H-pyrazolo[4,3-c]pyridin-1-yl)methyl)pyrrolidin-1-yl)prop-2-en-1-one], the half-maximal inhibitory concentration (IC50) was under 100 nM against TXK, over 500 nM against JAK3, under 100 nM at BTK and over 500 nM against ITK.

With `C=CC(=O)N1CCC[C@@H](n2nc(-c3ccc(Oc4ccccc4)cc3)c3cnccc32)C1` [Compound A23, (R)-1-(3-(3-(4-phenoxyphenyl)-H-pyrazolo[4,3-c]pyridin-1-yl)piperidin-1-yl)prop-2-en-1-one], the IC50 is under 100 nM at TXK, over 500 nM on JAK3, under 100 nM against BTK and over 500 nM against ITK.

Consider `C=CC(=O)N1CCC[C@@H](n2nc(-c3ccc(Oc4ccccc4)cc3F)c3cnccc32)C1` [Compound A24, (R)-1-(3-(3-(2-fluoro-4-phenoxyphenyl)-1H-pyrazolo[4,3-c]pyridin-1-yl)piperidin-1-yl)prop-2-en-1-one], for which the IC50 at TXK was under 100 nM; on JAK3, over 500 nM; against BTK, under 100 nM; at ITK it was over 500 nM.

On to `CN(C)C/C=C/C(=O)N1CC[C@@H](n2nc(-c3ccc(Oc4ccccc4)cc3)c3cncnc32)C1` [Compound A25], for which the IC50 at TXK was over 500 nM; at JAK3 it was over 500 nM; against BTK, under 100 nM; against ITK, over 500 nM.

For the compound `C=CC(=O)N1CCC[C@@H](n2nc(-c3ccc(Oc4ccccc4)cc3)c3cncc(F)c32)C1` [Compound A26, (R)-1-(3-(7-fluoro-3-(4-phenoxyphenyl)-1H-pyrazolo[4,3-c]pyridin-1-yl)piperidin-1-yl)prop-2-en-1-one], the IC50 on TXK was under 100 nM; on JAK3 it was over 500 nM; at BTK, under 100 nM; at ITK, over 500 nM.

Turning to `C=CC(=O)N1CCC[C@H]1Cn1nc(-c2ccc(Oc3ccccc3)cc2)c2cncc(F)c21` [Compound A27, (S)-1-(2-((7-fluoro-3-(4-phenoxyphenyl)-1H-pyrazolo[4,3-c]pyridin-1-yl)methyl)pyrrolidin-1-yl)prop-2-en-1-one], the IC50 at TXK was under 100 nM; at JAK3, over 500 nM; on BTK it was under 100 nM; on ITK it was over 500 nM.

For the compound `C=CC(=O)N1CCC[C@@H](c2nc(-c3ccc(Oc4ccccc4)cc3)c3cnccn23)C1` [Compound A28, (R)-1-(3-(1-(4-phenoxyphenyl)imidazo[1,5-a]pyrazin-3-yl)piperidin-1-yl)prop-2-en-1-one], the IC50 at TXK is under 100 nM; on JAK3 it was over 500 nM; at BTK, under 100 nM; against ITK it was over 500 nM.
